Experimental data: US5488049A, “Method of treating learning and memory disorders using benzothiadiazide derivatives as nootropic agents” (FIDIA - Georgetown Institute for the Neuro-Sciences, priority 1993, dated 1996)

Test system: EPSCs elicited in CAl pyramidal neurons
Experiment: Excitatory postsynaptic currents (EPSCs) in CAl pyramidal neurons in hippocampal slices on stimulation of Schaffer collateral afferents
Assay type: cell-based, rat
Experimental: Young rats (12-16 days old) were decapitated and the brains quickly removed and placed in ice-cold Ringer solution. Thin slices of hippocampus (250 μm) were then cut with a vibratome slicer (Lancer, St. Louis, Mo.) and kept in Ringer solution at 37° C. until use. The experiments were carried out at room temperature with the slice totally submerged in a 1 ml volume recording chamber and under continuous perfusion with Ringer solution at a rate of 6 ml/min using an upright Hoffman modulation contrast microscope (Carl Zeiss, Germany) equipped with a 40×water immersion objective.
Ionic currents in whole-cell configuration and outside-out excised membrane patches were monitored using the patch clamp technique (15).
Traces were filtered at 3 KHz (-3 dB, 8-pole, lowpass Bessel filter, Frequency Devices), and stored in an LSI 11/73 computer (INDEC System, Sunnyvale, Calif.) after digitization (10 KHz) with a Data Translation analog to digital converter. Decay time constants of EPSC and glutamate-activated currents were determined from exponential fitting with the 11/73 system by using an entirely automated least-squares procedures (see Vicini and Schuetze, 1985, for further details). This method uses a Simplex algorithm (Caceci and Cacheris, 1984) to fit the data to either a single or double exponential equation of the form I(t)=If exp(-t/tauf)+Is exp(-t/taus), where If and Is are the amplitudes of the sIPSC fast and slow components, and tauf and taus are their respective decay time constants. Peak amplitudes were measured at the absolute maximum of the currents, taking into account the noise of the baseline and noise around the peak. Rise times were measured as the time elapsed from 20 to 80% of the peak amplitude of the response.
The action of nootropic drugs on the excitatory postsynaptic currents (EPSCs) elicited in CAl pyramidal neurons in hippocampal slices was investigated by stimulation of the Schaffer collateral afferents.

SMILES: CC1Nc2ccc(Cl)cc2S(=O)(=O)N1 (racemic) [IDRA 21, 7-chloro-3-methyl-3,4-dihydro-2H 1,2,4-benzothiadiazine S-S dioxide]
- Emax at 1000 µM (Rattus norvegicus, Pyramidal neuron, read-out: efficacy in increasing delay time of AMPA current (EPSC) relative to diazoxide): 300%
- Emax (Rattus norvegicus, Pyramidal neuron, read-out: response relative to diazoxide (electrophysiology summary)): 300%
- response relative to aniracetam (electrophysiology summary) (summary statement): one order of magnitude larger than that of aniracetam
